Like-named read-outs stand apart in the source and are kept apart here.
Target: T1, Human HDAC6 (Homo sapiens, UniProt Q9UBN7)
T1 construct: Full length with N-terminal GST tag, MW=159 kDa; GST (N); host or cells: Sf9 insect cells (baculovirus)
T1 sequence (Q9UBN7 1-1215): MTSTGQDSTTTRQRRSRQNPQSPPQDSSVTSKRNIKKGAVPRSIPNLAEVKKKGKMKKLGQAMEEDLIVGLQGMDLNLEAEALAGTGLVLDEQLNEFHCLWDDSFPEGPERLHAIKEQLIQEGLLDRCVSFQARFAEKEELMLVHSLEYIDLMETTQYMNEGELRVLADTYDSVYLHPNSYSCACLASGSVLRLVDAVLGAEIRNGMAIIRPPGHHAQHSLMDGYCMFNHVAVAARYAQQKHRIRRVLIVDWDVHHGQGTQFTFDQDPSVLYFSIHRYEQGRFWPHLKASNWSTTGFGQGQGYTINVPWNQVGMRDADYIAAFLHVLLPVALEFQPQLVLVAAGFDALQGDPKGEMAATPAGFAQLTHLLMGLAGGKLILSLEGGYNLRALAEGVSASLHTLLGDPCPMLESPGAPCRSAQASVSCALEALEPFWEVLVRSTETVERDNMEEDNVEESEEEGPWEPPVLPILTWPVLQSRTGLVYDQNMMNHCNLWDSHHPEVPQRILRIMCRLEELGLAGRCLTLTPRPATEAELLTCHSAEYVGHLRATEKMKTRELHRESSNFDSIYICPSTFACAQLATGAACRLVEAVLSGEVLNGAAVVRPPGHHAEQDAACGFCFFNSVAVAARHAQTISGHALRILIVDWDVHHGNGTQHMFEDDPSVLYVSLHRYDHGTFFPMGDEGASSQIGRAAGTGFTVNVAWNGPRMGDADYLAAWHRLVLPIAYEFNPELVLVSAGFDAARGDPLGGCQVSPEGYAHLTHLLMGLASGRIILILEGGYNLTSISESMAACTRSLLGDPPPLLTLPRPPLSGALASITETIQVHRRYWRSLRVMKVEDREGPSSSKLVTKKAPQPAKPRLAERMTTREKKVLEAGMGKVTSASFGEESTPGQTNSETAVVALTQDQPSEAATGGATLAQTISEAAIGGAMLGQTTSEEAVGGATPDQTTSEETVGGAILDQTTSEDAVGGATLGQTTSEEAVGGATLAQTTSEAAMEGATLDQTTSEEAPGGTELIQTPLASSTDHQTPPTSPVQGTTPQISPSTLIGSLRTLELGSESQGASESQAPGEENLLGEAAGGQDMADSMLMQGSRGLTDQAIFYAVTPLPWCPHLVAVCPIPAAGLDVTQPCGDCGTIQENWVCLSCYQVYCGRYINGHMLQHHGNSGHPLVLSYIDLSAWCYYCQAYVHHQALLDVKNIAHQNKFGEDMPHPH
Experiment: HDAC6 inhibition assay (fluorogenic p53 peptide substrate)
Format: biochemical
Procedure: The HDAC1, 2, 4, 5, 6, 7, 8, 9, 10, and 11 assays used isolated recombinant human protein; HDAC3/NcoR2 complex was used for the HDAC3 assay. Substrate for HDAC1, 2, 3, 6, 10, and 11 assays is a fluorogenic peptide from p53 residues 379-382 (RHKKAc); substrate for HDAC8 is fluorogenic diacyl peptide based on residues 379-382 of p53 (RHKAcKAc). Acetyl-Lys(trifluoroacetyl)-AMC substrate was used for HDAC4, 5, 7, and 9 assays. Compounds were dissolved in DMSO and tested in 10-dose IC50 mode with 3-fold serial dilution starting at 30 μM. Control Compound Trichostatin A (TSA) was tested in a 10-dose IC50 with 3-fold serial dilution starting at 5 μM. IC50 values were extracted by curve-fitting the dose/response slopes. Assays were performed in duplicate and IC50 values are an average of data from both experiments.
Human HDAC6 (GenBank Accession No. BC069243): Full length with N-terminal GST tag, MW=159 kDa, expressed by baculovirus expression system in Sf9 cells. Enzyme is in 50 mM Tris-HCl, pH 8.0, 138 mM NaCl, 20 mM glutathione, and 10% glycerol, and stable for >6 months at −80° C. Purity is >90% by SDS-PAGE. Specific Activity is 50 U/μg, where one U=1 pmol/min under assay condition of 25 mM Tris/Cl, pH8.0, 137 mM NaCl, 2.7 mM KCl, 1 mM MgCl2, and 0.1 mg/ml BSA, 30 μM HDAC substrate, and 5 ng/μl HDAC6, incubation for 60 min at 30° C.
Substrate for HDAC1 and HDAC6: Acetylated peptide substrate for HDAC, based on residues 379-382 of p53 (Arg-His-Lys-Lys(Ac)), a site of regulatory acetylation by the p300 and CBP acetyltransferases (lysines 381, 382)1-6, is the best for HDAC from among a panel of substrates patterned on p53, histone H3 and histone H4 acetylation sites7.
Reaction Buffer: 50 mM Tris-HCl, pH 8.0, 137 mM NaCl, 2.7 mM KCl, 1 mM MgCl2, 1 mg/ml BSA.
HDAC6: 12.6 nM HDAC6 and 50 μM HDAC substrate are in the reaction buffer and 1% DMSO final. Incubate for 2 hours at 30° C.
All IC50 values are automatically calculated using the GraphPad Prism version 5 and Equation of Sigmoidal dose-response (variable slope): Y=Bottom+(Top−Bottom)/(1+10^((Log EC50−X)*HillSlope)), where X is the logarithm of concentration, Y is the response, Y starts at Bottom and goes to Top with a sigmoid shape. In most cases, “Bottom” is set 0, and “Top” is set “less than 120%”. This is identical to the “four parameter logistic equation”. IC50 curves also are drawn using the GraphPad Prism, and IC50 values and Hill slopes are provided.
HDAC Activity Assays: HDAC assay is performed using fluorescently-labeled acetylated substrate, which comprises an acetylated lysine side chain. After incubation with HDAC, deacetylation of the substrate sensitizes the substrate such that, in a second step, treatment with the detection enzyme produces a fluorophore. HDACs 1 and 6 were expressed as full length fusion proteins. Purified proteins were incubated with 50 μM fluorescently-labeled acetylated peptide substrate and test compound for 2 hours at RT in HDAC assay buffer containing 50 mM Tris-HCl (pH 8.0), 137 mM NaCl, 2.7 mM KCl, 1 mM MgCl2, 1% DMSO, and 1% BSA.
Reactions were terminated by the addition of the Developer after 2 hours, and the development of fluorescence signal, which was relative to the amount of deacetylated peptide, was monitored by time-course measurement of EnVision (PerkinElmer). The HDAC activity was estimated from the slope of time-course measurement of the fluorescence intensity. The slope of no-enzyme control (substrate alone) was served as background, and % Enzyme activity was calculated using background-subtracted slope of no inhibitor control (DMSO) as 100% activity.

[1] = Table 1, performed by Reaction Biology Corporation, read-out: HDAC isoform IC50 (nM) 6
[2] = Table 2 isoform selectivity, read-out: HDAC Inhibition (IC50 uM) isoform 6

| Structure (SMILES) | IC50 [1] | IC50 [2] |
| --- | --- | --- |
| O=C(NO)c1ccc(CN2C(=O)C(F)(F)c3ccccc32)cc1 [II-ING-66, 4-((3,3-Difluoro-2-oxoindolin-1-yl)methyl)-N-hydroxybenzamide] | 4.1 nM |  |
| O=C(NO)c1ccc(CN2CCc3cc(Cl)ccc32)cc1 [II-ING-39, 4-((5-Chloroindolin-1-yl)methyl)-N-hydroxybenzamide] | 21.5 nM |  |
| O=C(NO)c1ccc(CN2CCc3ccccc32)cc1 [II-ING-44, N-Hydroxy-4-(indolin-1-ylmethyl)benzamide] | 26.8 nM |  |
| COc1ccc2c(c1)CCN2Cc1ccc(C(=O)NO)cc1 [II-ING-49, N-Hydroxy-4-((5-methoxyindolin-1-yl)methyl)benzamide] | 11.5 nM |  |
| O=C(NO)c1ccc(CN2CCc3ccc(Cl)cc32)cc1 [II-ING-6, 4-((6-Chloroindolin-1-yl)methyl)-N-hydroxybenzamide] | 11.5 nM | 9 nM |
| Cn1c(NCc2ccc(C(=O)NO)cc2)nc2ccccc21 [II-ING-13, N-Hydroxy-4-(((1-methyl-1H-benzo[d]imidazol-2-yl)amino)methyl)benzamide] | 11 nM | 9 nM |
| O=C(NO)c1ccc(CN2CCc3ccc(F)cc32)cc1 [II-ING-41, 4-((6-Fluoroindolin-1-yl)methyl)-N-hydroxybenzamide] | 16.7 nM | 4 nM |
| O=C(NO)c1ccc(CN2CCc3cc(F)ccc32)cc1 [II-ING-42, 4-((5-Fluoroindolin-1-yl)methyl)-N-hydroxybenzamide] | 13.1 nM |  |

— patent publication US10934255B2, “Nrf and HIF activators/HDAC inhibitors and therapeutic methods using the same” (THE BOARD OF TRUSTEES OF THE UNIVERSITY OF ILLINOIS, priority 2017, dated 2021)
